Measured values as given in patent US9521847B2, “Synergistic weed control from applications of pyridine carboxylic acid herbicides and synthetic auxin herbicides and/or auxin transport inhibitors” (Dow AgroSciences LLC, priority 2014, dated 2016).
“And” between values parts separate entries of the source, which are not always exact repeats. Equal values may be shown once. Read-outs that look alike come from different tables or passages of the source.

Assays:
[1] = system: pigweed (AMARE, Amaranthus retroflexus); test: Greenhouse postemergence trial, % visual injury; type: in vivo; conditions: for % visual injury, Obs: AMARE
[2] = system: winter rape (BRSNW, Brassica napus); test: Greenhouse postemergence trial, % visual injury; type: in vivo; conditions: for % visual injury, Obs: BRSNW
[3] = system: common lambsquarters (CHEAL, Chenopodium album L.); test: Greenhouse postemergence trial, % visual injury; type: in vivo; conditions: for % visual injury, Obs: CHEAL
[4] = system: kochia (KCHSC, Kochia scoparia); test: Greenhouse postemergence trial, % visual injury; type: in vivo; conditions: for % visual injury, Obs.: Table 60
Procedure: Following the protocol in Example 1, compound 1 and compound 2 were combined with 2,4 D EHE (EC) and applied to kochia (KCHSC, Kochia scoparia) and the phytotoxicity of the herbicidal compositions was measured.
Following the protocol in Example 1, compound 1 (EC) and Compound 2 (SC) were combined with diflufenzopyr and applied to kochia (Kochia scoparia, KCHSC) and the phytotoxicity of the herbicidal composition was measured.

[5] = system: velvetleaf (Abutilon theophrasti, ABUTH); test: Greenhouse postemergence trial, % visual injury; type: in vivo
[6] = system: nutsedge (Cyperus esculentus, CYPES); test: Greenhouse postemergence trial, % visual injury; type: in vivo
[7] = system: sunflower (Helianthus annus, HELAN); test: Greenhouse postemergence trial, % visual injury; type: in vivo; conditions: for % visual injury, Obs: HELAN
[8] = system: wild buckwheat (Polygonum convolvulus, POLCO); test: Greenhouse postemergence trial, % visual injury; type: in vivo; conditions: for % visual injury, Obs: POLCO
[9] = system: grain sorghum (Sorghum vulgare, SORVU); test: Greenhouse postemergence trial, % visual injury; type: in vivo
[10] = system: common chickweed (Stellaria media, STEME); test: Greenhouse postemergence trial, % visual injury; type: in vivo; conditions: for % visual injury, Obs: STEME
[11] = system: wild radish (Raphanus raphanistrum, RAPRA); test: Greenhouse postemergence trial, % visual injury; type: in vivo
[12] = system: Russian thistle (Salsola iberica, SASKR); test: Greenhouse postemergence trial, % visual injury; type: in vivo
[13] = system: wild mustard (Sinapis arvensis, SINAR); test: Greenhouse postemergence trial, % visual injury; type: in vivo
[14] = system: large crabgrass (Digitaria sanguinalis, DIGSA); test: Greenhouse postemergence trial, % visual injury; type: in vivo; conditions: Digitaria sanguinalis, post-emergence; DIGSA, 5 g ae/ha; read-out: % visual injury, Obs
[15] = system: ivyleaved speedwell (Veronica hederifolia, VERHE); test: Greenhouse postemergence trial, % visual injury; type: in vivo; conditions: compound 1 (EC) 5 g ae/ha
[16] = system: Roundup Ready rape (Brassica napus, BRSNN-RR); test: Greenhouse postemergence trial, % visual injury; type: in vivo; conditions: compound 1 (EC) 5 g ae/ha
spring barley (HORVS) = conditions: in vivo; for % visual injury (Obs): Hordeum vulgare (spring barley)
maize (ZEAMX) = conditions: maize (Zea mays), in vivo
common rice (ORYSA) = conditions: in vivo
[17] = system: Canadian thistle (CIRAR, Cirsium arvense); test: Greenhouse postemergence trial, % visual injury; conditions: for % visual injury, Obs: CIRAR; for pest or weed control at 5 g/ha: Cirsium arvense, post-emergence;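 for all read-outs here: plants sprayed at second to third true leaf stage, injury scored visually 20-22 d later against solvent-blank sprayed controls, 0 meaning no injury and 100 complete kill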
[18] = system: spring rape (Brassica napus, BRSNN); test: Greenhouse postemergence trial, % visual injury; conditions: for plant injury at 5 g/ha: Brassica napus, post-emergence
[19] = system: poinsettia (Euphorbia heterophylla, EPHHL); test: Greenhouse postemergence trial, % visual injury
[20] = system: wild pansy (Viola tricolor, VIOTR); test: Greenhouse postemergence trial, % visual injury; conditions: for % visual injury, Obs: VIOTR
[21] = system: ivyleaf morningglory (Ipomoea hederacea, IPOHE); test: Greenhouse postemergence trial, % visual injury
[22] = compound 1 (EC) 5 g ae/ha, Table 62
[23] = compound 1 (EC) 5 g ae/ha, Table 63
[24] = read-out: % visual injury (Obs)

Structure (SMILES): Nc1c(F)c(-c2ccc3cc[nH]c3c2F)nc(C(=O)O)c1Cl [compound 1]
- % visual injury, Obs ([1]; 5 g ae/ha): 75%
- % visual injury, Obs ([1]; 10 g ae/ha): 97%
- % visual injury (Obs) ([1]; compound 1 (EC) 5 g ae/ha): 70%
- % visual injury (Obs) ([1]; compound 1 (EC) 10 g ae/ha): 85%
- % visual injury (Obs) ([1]; compound 1 SC 5 g ae/ha): 70%
- % visual injury (Obs) ([1]; compound 1 SC 10 g ae/ha): 85%
- % visual injury, Obs ([2]; 5 g ae/ha): 40%
- % visual injury, Obs ([2]; 10 g ae/ha): 45%
- % visual injury, Obs [2, 22]: 30%
- % visual injury, Obs [2, 23]: 50%
- % visual injury (Obs) ([2]; compound 1 (EC) 5 g ae/ha): 40% and 70%
- % visual injury (Obs) ([2]; compound 1 (EC) 10 g ae/ha): 100% and 80%
- % visual injury (Obs) ([2]; compound 1 SC 5 g ae/ha): 30%
- % visual injury (Obs) ([2]; compound 1 SC 10 g ae/ha): 60%
- % visual injury, Obs ([3]; 5 g ae/ha): 90%
- % visual injury, Obs ([3]; 10 g ae/ha): 100%
- % visual injury (Obs) ([3]; compound 1 (EC) 5 g ae/ha): 80%
- % visual injury Obs ([4]; 8.75 g ae/ha alone, 20-22 d): 43%
- pest or weed control at 5 g/ha ([4]; Bassia scoparia, post-emergence, KCHSC, 5 g ae/ha, read-out: % visual injury, Obs): 65%
- pest or weed control at 10 g/ha ([4]; Bassia scoparia, post-emergence, KCHSC, 10 g ae/ha, read-out: % visual injury, Obs): 60%
- % visual injury, Obs. ([4]; KCHSC, compound 1 (EC) 8.75 g ae/ha): 78%
- % visual injury, Obs. ([4]; KCHSC, compound 1 (EC) 17.5 g ae/ha): 80%
- % visual injury (Obs) ([4]; compound 1 (EC) 5 g ae/ha): 65%
- % visual injury (Obs) ([4]; compound 1 SC 5 g ae/ha): 75%
- % visual injury (Obs) ([4]; compound 1 SC 10 g ae/ha): 100%
- pest or weed control at 5 g/ha ([5]; Abutilon theophrasti, post-emergence, ABUTH, 5 g ae/ha, read-out: % visual injury, Obs): 70%
- pest or weed control at 10 g/ha ([5]; Abutilon theophrasti, post-emergence, ABUTH, 10 g ae/ha, read-out: % visual injury, Obs): 60%
- pest or weed control at 5 g/ha ([5]; Abutilon theophrasti, post-emergence, ABUTH, compound 1 (EC) 5 g ae/ha, Table 62, read-out: % visual injury, Obs): 60%
- pest or weed control at 5 g/ha ([5]; Abutilon theophrasti, post-emergence, ABUTH, compound 1 (EC) 5 g ae/ha, Table 63, read-out: % visual injury, Obs): 60%
- % visual injury (Obs) ([5]; compound 1 (EC) 5 g ae/ha): 70%
- % visual injury, Obs ([6]; CYPES, 5 g ae/ha): 30%
- pest or weed control at 5 g/ha ([6]; Cyperus, post-emergence, 5 g ae/ha alone, 20-22 d, read-out: % visual injury Obs): 25%
- % visual injury (Obs) ([6]; compound 1 (EC) 5 g ae/ha): 30%
- % visual injury, Obs ([7]; 5 g ae/ha): 80%
- % visual injury, Obs [7, 22]: 70%
- % visual injury, Obs [7, 23]: 70%
- % visual injury (Obs) ([7]; compound 1 (EC) 5 g ae/ha): 80%
- % visual injury, Obs ([8]; 10 g ae/ha): 30%
- % visual injury, Obs [8, 22]: 65%
- % visual injury, Obs [8, 23]: 65%
- % visual injury (Obs) ([8]; compound 1 SC 10 g ae/ha): 30% and 40%
- % visual injury Obs ([9]; 5 g ae/ha alone, 20-22 d): 13%
- % visual injury, Obs ([9]; SORVU, 10 g ae/ha): 50%
- % visual injury (Obs) ([9]; compound 1 (EC) 5 g ae/ha): 30%
- % visual injury, Obs ([10]; 5 g ae/ha): 60% and 70%
- % visual injury, Obs ([10]; 10 g ae/ha): 70%
- % visual injury (Obs) ([10]; compound 1 (EC) 5 g ae/ha): 60%
- % visual injury (Obs) ([11]; compound 1 SC 2.5 g ae/ha): 13%
- % visual injury (Obs) ([11]; compound 1 SC 5 g ae/ha): 13%
- % visual injury (Obs) ([12]; compound 1 (EC) 10 g ae/ha): 65% and 60%
- % visual injury (Obs) ([12]; compound 1 SC 5 g ae/ha): 65%
- % visual injury (Obs) ([12]; compound 1 SC 10 g ae/ha): 80%
- % visual injury (Obs) ([13]; compound 1 (EC) 5 g ae/ha): 100% and 95%
- % visual injury (Obs) ([13]; compound 1 (EC) 10 g ae/ha): 100%
- % visual injury (Obs) ([13]; compound 1 SC 5 g ae/ha): 100%
- % visual injury (Obs) ([13]; compound 1 SC 10 g ae/ha): 80%
- pest or weed control at 5 g/ha [14]: 0%
- % visual injury (Obs) [15]: 40%
- % visual injury, Obs ([16]; Table 62): 35%
- % visual injury, Obs ([16]; Table 63): 35%
- % visual injury (Obs) (spring barley (HORVS)): 0%
- % visual injury (Obs) (spring barley (HORVS); sc): 0%
- % visual injury, Obs (spring barley (HORVS); spring barley (Hordeum vulgare)): 0%
- % visual injury (Obs) (maize (ZEAMX)): 5%
- % visual injury (Obs) (common rice (ORYSA)): 0%
- % visual injury, Obs ([17]; 5 g ae/ha): 10%
- % visual injury, Obs [17, 23]: 10%
- pest or weed control at 5 g/ha [17, 24]: 10%
- pest or weed control at 5 g/ha ([17]; read-out: % visual injury Obs): 20%
- % visual injury (Obs) ([17]; compound 1 (EC) 5 g ae/ha): 10%
- % visual injury, Obs ([18]; BRSNN, compound 1 (EC) 5 g ae/ha, Table 62): 50%
- plant injury at 5 g/ha [18, 24]: 50%
- plant injury at 5 g/ha ([18]; read-out: % visual injury Obs): 60%
- plant injury at 5 g/ha ([18]; read-out: % visual injury, Obs): 50%
- pest or weed control at 5 g/ha ([19]; Euphorbia heterophylla, post-emergence, read-out: % visual injury, Obs, EPHHL, 5 g ae/ha): 95%
- pest or weed control at 10 g/ha ([19]; Euphorbia heterophylla, post-emergence, read-out: % visual injury, Obs, EPHHL, 10 g ae/ha): 97%
- % visual injury (Obs) ([19]; compound 1 (EC) 5 g ae/ha): 95%
- % visual injury, Obs ([20]; 10 g ae/ha): 10%
- % visual injury, Obs [20, 22]: 5%
- % visual injury, Obs [20, 23]: 5%
- pest or weed control at 5 g/ha ([20]; Viola tricolor, post-emergence, read-out: % visual injury Obs): 25%
- % visual injury (Obs) ([20]; compound 1 (EC) 5 g ae/ha): 10%
- % visual injury (Obs) ([20]; compound 1 SC 2.5 g ae/ha): 13%
- % visual injury (Obs) ([20]; compound 1 SC 5 g ae/ha): 23%
- pest or weed control at 5 g/ha ([21]; Ipomoea, post-emergence, read-out: % visual injury, Obs, IPOHE, 5 g ae/ha): 20%
- pest or weed control at 10 g/ha ([21]; Ipomoea, post-emergence, read-out: % visual injury, Obs, IPOHE, 10 g ae/ha): 10%
- % visual injury (Obs) ([21]; compound 1 (EC) 5 g ae/ha): 20%
